From ChEMBL document CHEMBL1156087, “Antioxidant reactivity toward nitroxide probes anchored into human serum albumin. A new model for studying antioxidant repairing capacity of protein radicals” (Bioorg Med Chem Lett, 2009)

Assays:
Conditions in all cases: isolated protein; call rule not given here
Albumin [1] = target: T1, Albumin (Homo sapiens, UniProt P02768); assay: Binding affinity to human serum albumin by tryptophan fluorescence quenching method; format: ADME
Albumin [2] = target: T1, Albumin; assay: Binding affinity to 45 uM human serum albumin assessed as fluorescence distribution at 2.5 uM; format: ADME
Albumin [3] = target: T1, Albumin; assay: Binding affinity to human serum albumin intensity at 5 uM by fluorescence based drug displacement assay in presence of dansyl amide
Albumin [4] = target: T1, Albumin; assay: Binding affinity to 130 uM human serum albumin assessed as fluorescence distribution at 2.5 uM; format: ADME
Albumin [5] = target: T1, Albumin; assay: Binding affinity to human serum albumin intensity at 5 uM by fluorescence based drug displacement assay in presence of dansyl sarcosine
Albumin [6] = target: T1, Albumin; assay: Binding affinity to 15 uM human serum albumin assessed as fluorescence distribution at 2.5 uM; format: ADME
Albumin [7] = target: T1, Albumin; assay: Binding affinity to human serum albumin by Benesi-Hildebrand method; format: ADME

T1 sequence (P02768 whole entry): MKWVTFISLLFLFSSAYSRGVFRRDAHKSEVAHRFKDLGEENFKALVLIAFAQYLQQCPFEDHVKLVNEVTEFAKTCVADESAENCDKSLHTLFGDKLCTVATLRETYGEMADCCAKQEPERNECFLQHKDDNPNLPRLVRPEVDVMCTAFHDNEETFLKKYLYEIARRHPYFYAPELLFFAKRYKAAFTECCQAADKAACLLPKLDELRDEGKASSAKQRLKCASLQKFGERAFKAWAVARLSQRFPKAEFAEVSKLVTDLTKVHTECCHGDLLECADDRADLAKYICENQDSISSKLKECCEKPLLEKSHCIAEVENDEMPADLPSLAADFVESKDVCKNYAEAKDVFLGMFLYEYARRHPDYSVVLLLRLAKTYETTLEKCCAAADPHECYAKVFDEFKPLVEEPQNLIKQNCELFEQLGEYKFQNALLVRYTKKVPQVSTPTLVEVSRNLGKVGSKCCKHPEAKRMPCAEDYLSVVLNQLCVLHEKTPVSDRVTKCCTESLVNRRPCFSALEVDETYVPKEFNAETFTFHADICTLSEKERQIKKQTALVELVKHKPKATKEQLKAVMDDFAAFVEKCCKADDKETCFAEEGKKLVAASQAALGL

| Ka (Albumin [1]) [×10⁴ /M] | Activity (Albumin [2]) [%] | Activity (Albumin [3]) | Activity (Albumin [4]) [%] | Activity (Albumin [5]) | Activity (Albumin [6]) [%] | Ka (Albumin [7]) [×10⁴ /M] | SMILES |
| --- | --- | --- | --- | --- | --- | --- | --- |
| 9 | – | – | – | – | – | – | Cc1nc2ccccc2c(C(=O)OC2CC(C)(C)N(O)C(C)(C)C2)c1O |
| 5 | 28.1 | Active | 44.6 | Not Active | 2.9 | 4.8 | CC1(C)CC(OC(=O)c2cc3cc4c5c(c3oc2=O)CCCN5CCC4)CC(C)(C)N1O |
